# Results as given in patent EP0532759A1, “NOVEL ALLYL ALCOHOL DERIVATIVE” (TSUMURA & CO., priority 1991, dated 1992).
# Read-outs that look alike come from different tables or passages of the source. Marks after values point to notes of the source that are not given here.
# Key:
# [1] = biological target: T1, 5-lipoxygenase (Rattus norvegicus, UniProt P12527); test: 5-Lipoxygenase inhibitory activity (5-HETE formation, HPLC); type: biochemical; conditions: enzyme preparation from RBL-1 culture cells; 10 µM arachidonic acid; 37°C, 10 min; read-out: IC₅₀
# T1 construct: endogenous in cells; host or cells: RBL-1 cells (sonicated, 105,000 x G supernatant)
# T1 sequence (P12527 1-673): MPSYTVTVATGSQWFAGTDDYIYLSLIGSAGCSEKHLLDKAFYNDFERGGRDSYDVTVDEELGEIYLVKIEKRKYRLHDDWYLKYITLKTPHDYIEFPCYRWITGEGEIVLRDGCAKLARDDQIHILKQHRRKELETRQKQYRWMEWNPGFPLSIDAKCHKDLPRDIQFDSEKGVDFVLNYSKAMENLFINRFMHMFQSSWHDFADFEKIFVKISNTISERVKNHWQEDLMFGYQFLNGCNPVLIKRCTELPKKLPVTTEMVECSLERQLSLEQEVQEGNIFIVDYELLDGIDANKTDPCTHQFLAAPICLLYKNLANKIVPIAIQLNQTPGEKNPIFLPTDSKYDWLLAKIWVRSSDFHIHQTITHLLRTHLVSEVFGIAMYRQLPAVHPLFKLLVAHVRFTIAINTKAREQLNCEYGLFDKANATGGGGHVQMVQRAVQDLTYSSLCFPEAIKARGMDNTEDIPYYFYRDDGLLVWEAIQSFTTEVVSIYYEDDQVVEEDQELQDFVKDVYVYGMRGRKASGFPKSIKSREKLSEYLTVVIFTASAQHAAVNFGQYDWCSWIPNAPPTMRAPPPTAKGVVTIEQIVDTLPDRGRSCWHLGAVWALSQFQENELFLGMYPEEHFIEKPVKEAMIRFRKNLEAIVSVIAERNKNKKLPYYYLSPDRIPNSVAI
# Protocol: RBL-1 culture cells were suspended in a 50 mM phosphate buffer (pH: 7.4) containing 1 mM ethylenediaminetetraacetic acid (EDTA) and 10 % ethylene glycol so that the concentration was 5 x 10⁶ cells/ml. The suspension was subjected to an ultrasonic treatment and centrifuged at 10,000 x G for 10 min and further at 105,000 x G for 60 min. The resultant supernatant was used as a 5-lipoxygenase enzyme preparation.
# 50 mM phosphate buffer, 15 mM calcium chloride, 20 µM indomethacin, 18 mM glutathione, 6 mM adenosine triphosphate (ATP), 10 µM arachidonic acid, the enzyme preparation prepared above and an ethanol solution of the compound of the present invention were placed in a test tube in such a manner that the whole quantity was 0.6 ml and the final concentration was 5 µM, 1 µM and 0.5 µM. A reaction was allowed to proceed at 37°C for 10 min. After the completion of the reaction, 1.2 ml of acetone and 100 µl of 2 N formic acid were added thereto to terminate the reaction. […] The resultant extract was concentrated and dissolved in methanol, and the content of […] in the solution was measured by means of high performance liquid chromatography [column = TSK-gel ODS-80 TM (manufactured by Tosoh Corporation); mobile phase = acetonitrile : water : acetic acid (60 : 40 : 0.02); flow rate = 1 ml/min; ultraviolet rays for detection = 235 nm]. […]
# [2] = test system: rat; test: Analgesic activity test (Randall-Selitto method, Brewer's yeast); type: in vivo
# Protocol: Experimental was made with "Randall-Selitto" analgesic effect measuring apparatus (manufactured by Ugo Basile in Italy), pressure was applied through a pressure terminal, and the pressure (g) applied at the time showing a wriggling motion in rat was measured as a threshold value for pain. The threshold value for pain was measured for each leg, and rats showing substantially the same degree of threshold value for pain were selected and used for the experiment. A 20 % aqueous Brewer's yeast solution was subcutaneously administered in an amount of 0.1 ml to the right hind paw of the rat, and the threshold value for pain was measured on both legs 30 min and 60 min after the administration of the aqueous solution. At the same time, a suspension of the compound of the present invention in a 2 % polysorbate 80 physiological saline (prepared by dissolving the compound of the present invention in polysorbate 80 in an amount of 2 % of the whole amount of the solution and gradually adding and mixing physiological saline therewith) was intravenously and orally administered, and the threshold value for pain of both legs was measured 15 min, 30 min, 60 min, 90 min and 120 min after the administration. The measurements were compared with the control group, and an increase in the threshold value for pain was regarded as an evidence for the analgesic activity.
# [3] = biological target: cyclooxygenase; test: Cyclooxygenase inhibitory activity (PGE2 formation from [1-14C] arachidonic acid); type: biochemical; conditions: microsome fraction of rabbit kidney medulla; 37°C, 15 min; PGE2 radioactivity; read-out: IC₅₀
# Protocol: 60 ml of a 0.1 M phosphate buffer (pH: 7.5) containing 1 mM glutathione was added to 7.0 g of medulla of kidney of a rabbit, and the mixture was homogenized through the use of a polytron. The resultant homogenate was centrifuged at 9,000 x G for 20 min to obtain a microsome fraction. This fraction was dissolved in 7 ml of a 0.1 M phosphate buffer (pH: 7.5) containing 1 […] glutathione to give a cyclooxygenase enzyme preparation.
# 4 mM glutathione, 10 mM tryptophan, 0.25 µM hemoglobin (each in final concentration) and a phosphate buffer (pH: 7.5) were added to 15 µl of the enzyme preparation thus prepared, and [1-¹⁴C] arachidonic acid (5 x 10⁴ dpm) and the compound of the present invention were further added thereto in such a manner that the concentrations were 40 µM, 20 µM, 10 µM and 5 µM, respectively (total amount: […]). The mixture was incubated at 37°C for 15 min, and 1 N hydrochloric acid was added thereto to terminate the reaction. Prostaglandin E₂ (PGE₂) was added thereto as a carrier, and the reaction product was extracted with 2 ml of an ether. The resultant extract was concentrated and applied to thin layer chromatography (development solvent = chloroform : methanol : acetic acid = 18 : 1 : 1) to separate a product. […] The PGE₂ radioactivity was measured by means of a liquid scintillation counter.
# [4] = test system: platelet-rich plasma (PRP); test: Platelet aggregation inhibition test (Born method, in vitro); type: cell-based; conditions: Rattus norvegicus; for inhibition at 5 µM: compound 5 µM; for inhibition at 20 µM: compound 20 µM
# Protocol: Blood was collected from a rat subjected to fasting for 12 hr so that the volume of 3.8 % sodium citrate became 1/10. The collected blood was centrifuged at room temperature and 159 x G for 10 min to collect a platelet-rich plasma (PRP). The remaining blood was centrifuged at room temperature and 1800 x G for 10 min to collect PPP (platelet poor plasma). The number of platelets was measured by means of PC-603A manufactured by Erma and adjusted to 3 x 10⁸/ml with PPP. The aggregation capability was measured according to the Born method with the concentration of PRP being 0 % (PPP) and 100 % […] through the use of a 4 channel NKK HEMATRACER aggregation meter. In an in vitro test, the novel allyl alcohol derivative was added in a concentration of 5 µM or 20 µM, the mixture was pre-incubated at 37°C for 3 min. An aggregation inducer was added thereto, and the aggregation capability was measured. Adenine diphosphate (ADP), collagen, epinephrine and arachidonic acid were used as the aggregation inducer. The concentration of the aggregation inducer was 2 µM for ADP, 1 µg/ml for collagen, 400 µM for arachidonic acid and 6 µg/ml of epinephrine. The novel ally] alcohol derivative was applied to the experiment after dissolution in dimethylsulfoxide (DMSO). The final concentration of DMSO thereof was 0.4 %, the addition of DMSO alone in this concentration had no clear effect on the aggregation of the platelet.
# [5] = test system: microvascular endothelial cells derived from human caul; test: Proliferation and migration of microvascular endothelial cells (Boyden chamber, EGF); type: cell-based; conditions: Endothelial cell, 10 µM/ml compound, 10 ng/ml EGF, cells that came out into the lower chamber, read-out: percentage inhibition
# Protocol: 5 x 10⁴ microvascular endothelial cells derived from human caul were placed in an upper chamber of a Boyden chamber, and 10 ng/ml of EGF was added as a control to a lower chamber separated from the upper chamber by means of a filter having a pore size of 5 µm (a polycarbonate filter manufactured by Nucleobore). 10 ng/ml of EGF and 10 µM/ml of the compound of the present invention were added to the drug administration group . The number of cells which had come out into the lower chamber was measured in terms of cells per HPF […].
# [6] = LD50 (acute toxicity); conditions: in vivo, mouse, 72 hr after administration, read-out: LD₅₀
# Protocol: A suspension of the compound of the present invention in a 2 % polysorbate 80 physiological saline (prepared by dissolving the compound of the present invention in polysorbate 80 in an amount of 2 % of the whole amount of the solution and gradually adding and mixing physiological saline therewith) was intravenously and orally administered to a mouse, and 72 hr after the administration, the LD₅₀ was calculated based on whether the mouse had survived or was dead. In the calculation, the up-and-down method was used for the intravenous administration, while the Litchfield-Wilcoxon method was used for the oral administration.
# [7] = test system: ICR mouse; test: Arachidonic acid ear lobe edema inhibiting test; type: in vivo; conditions: 1 mg per 20 µl acetone applied to auricle; 2 mg arachidonic acid 30 min later; ear thickness after one hour; versus control
# Protocol: 1 mg of the novel allyl alcohol derivative per 20 µl of acetone were applied to the auricle on the inside of the right of an ICR mouse (female, 8 - 11 weeks old). 30 min after the application, 10 µl of an acetone solution containing 2 mg of arachidonic acid was applied to the same site, and one hour after the application of the acetone solution, the thickness of the ear was measured by means of a dial thickness gauge. An equal weight of acetone was applied to the auricle on the left side, and measurement was conducted in the same manner as that described above, and […] was regarded as swelling of the ear. Further, a group wherein the solvent was applied instead of the sample was used as a control, and the ear lobe edema inhibition was determined by the following equation. [formula]
# [8] = test system: balb/c 3T3 cells; test: Inhibition of EGF-accelerated fibroblast growth (3H-thymidine incorporation); type: cell-based; conditions: 0.5 µg per hole compound, 50 pg per hole mouse EGF
# Protocol: A culture solution (hereinafter referred to as "CS DMEM") containing 10 % calf serum adjusted in such a manner that fibroblast (balb/c 3T3 cells) was contained in a concentration of 2.5 x 10⁴ cells per 0.5 ml was incubated on a 24-hole plate in an amount of 1 ml per hole. After the fibroblast was saturated in a monolayer state, cultivation was conducted at 37°C for 12 hr in 1% CS DMEM instead of the above medium through the use of 5 % CO₂. 0.5 µg per hole of the compound of the present invention and 50 pg per hole of mouse EGF were added thereto, and the cultivation was further conducted for 16 hr. ³H-thymidine in an amount of 0.5 µCi/50 µl/well was added thereto, and the mixture was cultivated for 8 hr. Then, the culture solution was removed, and washing was conducted with a cooled isotonic phosphate buffer. A 5 % cold trichloroacetic acid was added thereto, and the mixture was allowed to stand for 30 min. The supernatant was removed, and the residue was dissolved in a 0.5 M sodium hydroxide solution. The solution was neutralized with 0.5 M hydrochloric acid, a scintillation cocktail was added thereto, and counting was conducted by means of a liquid scintillation counter. The radioactivity of ³H-thymidine incorporated into the cells accompanying the growth was measured to study the function of the novel allyl alcohol on the growth of the cell.
# [9] = 140 mg/kg, 15 min after administration, control 123
# [10] = 140 mg/kg, 30 min after administration, control 115
# [11] = 140 mg/kg, 60 min after administration, control 108
# [12] = inducer arachidonic acid 400 µM
compound,measurement,setting,value
CCCCC/C=C/C(O)CCc1ccc(O)c(OC)c1 (stereo not shown) [compound of the present invention],IC50,[1],0.54 µM
same,Threshold value for pain (g),"[2]; 70 mg/kg, 15 min after administration, control 123",153^a g
same,Threshold value for pain (g),"[2]; 70 mg/kg, 30 min after administration, control 115",183^b g
same,Threshold value for pain (g),"[2]; 70 mg/kg, 60 min after administration, control 108",142^a g
same,Threshold value for pain (g),[2]; [9],190^b g
same,Threshold value for pain (g),[2]; [10],222^b g
same,Threshold value for pain (g),[2]; [11],210^b g
same,threshold value for pain as compared with the control group,"[2]; dose of 5 mg/kg, within 15 to 60 min, p < 0.05",significant increase
same,IC50,[3],7.62 µM
same,inhibition at 5 µM,[4]; inducer ADP 2 µM,12%
same,inhibition at 20 µM,[4]; inducer ADP 2 µM,26%
same,inhibition at 5 µM,[4]; [12],67%
same,inhibition at 20 µM,[4]; [12],96%
same,inhibition at 5 µM,[4]; inducer collagen 1 µg/ml,21%
same,inhibition at 20 µM,[4]; inducer collagen 1 µg/ml,43%
same,inhibition at 5 µM,[4]; inducer epinephrine 6 µg/ml,52%
same,inhibition at 20 µM,[4]; inducer epinephrine 6 µg/ml,63%
same,inhibition at 10 µM,[5],82%
same,LD50 at 72 hr,"[6]; Intravenous, up-and-down method",75.6 mg/kg
same,LD50 at 72 hr,"[6]; Oral, Litchfield-Wilcoxon method",1340 mg/kg
same,edema inhibition,[7],83%
same,growth inhibition,[8],72.9%
"Cc1c(N(C)C)c(=O)n(-c2ccccc2)n1C [Aminopyrine, reference compound]",Threshold value for pain (g),[2]; [9],190^b g
same,Threshold value for pain (g),[2]; [10],235^b g
same,Threshold value for pain (g),[2]; [11],212^b g
